From US7541367B2, “3-benzoimidazolyl-pyrazolopyridines useful in treating kinase disorders” (Janssen Pharmaceutica, N.V., priority 2005, dated 2009)

Assays:
Lyn kinase = target: T1, Lyn kinase (Homo sapiens, UniProt P07948); experiment: Lyn Kinase Assay; format: biochemical; conditions: 5 μM ATP
T1 construct: purchased Upstate Biotechnology, Lake Placid, N.Y
Procedure, shortened: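 Recombinant human Lyn kinase in pH 7.5 Tris buffer with EGTA, vanadate, β-mercaptoethanol and BSA reacted with compound for 40 min at 30° C. The radiolabelled product was captured on P30 filtermats after phosphoric acid stop and counted by scintillation. IC50 came from percent inhibition versus log concentration, using plate maximum/minimum signals.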

c-Src kinase = target: T2, c-Src kinase (Homo sapiens, UniProt P12931); experiment: c-Src Kinase Assay; format: biochemical; conditions: 5 μM ATP
T2 construct: purchased Upstate Biotechnology, Lake Placid, N.Y
Procedure, shortened: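 Human c-Src phosphorylated Cdc2 peptide (100 μM) […]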

CDK1 = target: T3, CDK1 (Homo sapiens, UniProt P06493); experiment: CDK-1 kinase screening assay (33P-ATP FlashPlate); format: biochemical; conditions: human CDK1 with cyclin B; 10 μM ATP; 1 hr at 30° C
T3 construct: purchased New England Biolabs, Beverly, Mass; 6020; host or cells: insect cells

A375 malignant melanoma = experiment: Cell Proliferation Inhibition Assay (14C-thymidine incorporation), A375; format: cell-based; conditions: Homo sapiens, A-375, A375 cells;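 further: proliferation measured by radiolabelled thymidine uptake into new DNA, counted in scintillating 96-well plates, compound-treated wells compared with DMSO-only control wells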
RET = target: T4, RET (Homo sapiens, UniProt P07949); experiment: RET kinase screening assay (33P-ATP FlashPlate); format: biochemical; conditions: human RET kinase domain; 10 μM ATP; 1 hr at 30° C;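 further: biotinylated peptide substrate captured on streptavidin FlashPlate, 33P phosphate transfer read by scintillation counting, 1% DMSO, lower incorporation means inhibition, percent relative to per-plate maximum and minimum signals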
T4 construct: polyhistidine (N)
T4 sequence (P07949 658-1114 limits assumed): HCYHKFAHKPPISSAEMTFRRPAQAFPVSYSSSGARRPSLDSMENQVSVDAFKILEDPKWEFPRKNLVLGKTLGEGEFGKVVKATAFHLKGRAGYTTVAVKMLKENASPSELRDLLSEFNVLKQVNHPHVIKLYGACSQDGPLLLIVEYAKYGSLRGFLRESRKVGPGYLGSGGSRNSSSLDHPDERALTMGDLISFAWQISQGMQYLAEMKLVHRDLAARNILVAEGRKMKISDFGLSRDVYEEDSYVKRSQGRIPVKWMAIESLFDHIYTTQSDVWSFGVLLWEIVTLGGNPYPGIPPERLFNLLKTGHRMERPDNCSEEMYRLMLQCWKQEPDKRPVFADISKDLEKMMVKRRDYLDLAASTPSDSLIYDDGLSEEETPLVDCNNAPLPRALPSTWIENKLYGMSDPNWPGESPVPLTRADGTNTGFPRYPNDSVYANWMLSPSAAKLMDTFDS

HER2 = target: T5, HER2 (Homo sapiens, UniProt P04626); experiment: HER2 kinase screening assay (33P-ATP FlashPlate); format: biochemical; conditions: GST-HIS6 HER-2 aa 679 to 1255; 10 μM ATP; 1 hr at 30° C;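 further: Biotin-poly(GT) 4:1 peptide captured on streptavidin FlashPlate, 33P transfer from γ-ATP read by scintillation counting, lower incorporation means inhibition, 1% DMSO final, 100 µL reaction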
T5 construct: GST (Glutathione-S-Transferase) (N); HIS6 (N); thrombin cleavage site (N); purchased Proqinase, Freiburg, Germany

VEGF-R2 = target: T6, VEGF-R2 (Rattus norvegicus, UniProt O08775); experiment: VEGF-R2 kinase screening assay (33P-ATP FlashPlate); format: biochemical; conditions: rat VEGF-R2 kinase domain; 10 μM ATP; 1 hr at 30° C;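 further: Read-out is ³³P incorporation from ³³P-γ-ATP into biotinylated peptide substrate captured on streptavidin FlashPlate, counted by scintillation, 1% DMSO final, inhibition scaled between per-plate maximum and minimum signals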
T6 construct: polyhistidine (N)

HCT-116 colon carcinoma = experiment: Cell Proliferation Inhibition Assay (14C-thymidine incorporation), HCT-116; format: cell-based; conditions: Homo sapiens, HCT-116, HCT-116 cells;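 further: proliferation measured as methyl 14C-thymidine uptake into new DNA, counted in 96-well scintillating microplates, compared with DMSO-only control wells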

T3 sequence (P06493 whole entry): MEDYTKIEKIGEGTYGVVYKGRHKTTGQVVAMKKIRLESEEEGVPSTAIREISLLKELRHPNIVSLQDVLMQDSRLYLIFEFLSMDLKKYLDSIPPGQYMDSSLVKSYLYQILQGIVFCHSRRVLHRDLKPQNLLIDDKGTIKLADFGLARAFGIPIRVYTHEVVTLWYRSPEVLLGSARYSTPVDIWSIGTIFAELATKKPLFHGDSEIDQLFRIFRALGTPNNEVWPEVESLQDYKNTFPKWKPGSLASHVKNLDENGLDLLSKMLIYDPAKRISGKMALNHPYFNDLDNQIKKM
T3 sequence (P14635 whole entry partner): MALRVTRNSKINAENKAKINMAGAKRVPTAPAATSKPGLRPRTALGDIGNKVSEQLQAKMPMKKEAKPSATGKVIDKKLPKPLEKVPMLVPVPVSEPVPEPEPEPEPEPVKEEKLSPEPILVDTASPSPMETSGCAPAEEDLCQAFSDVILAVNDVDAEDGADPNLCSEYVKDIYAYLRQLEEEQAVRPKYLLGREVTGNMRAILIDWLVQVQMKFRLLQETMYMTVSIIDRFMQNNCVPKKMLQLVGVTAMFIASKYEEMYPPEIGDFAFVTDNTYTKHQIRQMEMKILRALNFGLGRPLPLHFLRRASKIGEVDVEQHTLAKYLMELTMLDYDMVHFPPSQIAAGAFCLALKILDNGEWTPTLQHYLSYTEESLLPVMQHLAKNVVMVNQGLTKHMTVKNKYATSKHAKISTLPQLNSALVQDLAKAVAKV
T2 sequence (P12931 whole entry): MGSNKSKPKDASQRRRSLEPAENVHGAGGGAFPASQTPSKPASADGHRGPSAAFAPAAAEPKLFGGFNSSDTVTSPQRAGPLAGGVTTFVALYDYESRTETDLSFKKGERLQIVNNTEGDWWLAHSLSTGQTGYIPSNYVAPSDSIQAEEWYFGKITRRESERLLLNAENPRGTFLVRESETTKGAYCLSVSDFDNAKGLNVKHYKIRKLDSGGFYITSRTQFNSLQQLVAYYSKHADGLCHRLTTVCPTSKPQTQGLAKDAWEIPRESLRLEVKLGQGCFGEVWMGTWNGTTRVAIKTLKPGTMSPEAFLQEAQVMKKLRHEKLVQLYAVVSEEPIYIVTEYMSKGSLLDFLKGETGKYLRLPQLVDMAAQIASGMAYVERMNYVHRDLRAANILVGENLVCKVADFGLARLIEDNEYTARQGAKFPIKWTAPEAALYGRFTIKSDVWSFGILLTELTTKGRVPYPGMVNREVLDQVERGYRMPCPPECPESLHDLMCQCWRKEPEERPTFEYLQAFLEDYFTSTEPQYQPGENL
T1 sequence (P07948 whole entry): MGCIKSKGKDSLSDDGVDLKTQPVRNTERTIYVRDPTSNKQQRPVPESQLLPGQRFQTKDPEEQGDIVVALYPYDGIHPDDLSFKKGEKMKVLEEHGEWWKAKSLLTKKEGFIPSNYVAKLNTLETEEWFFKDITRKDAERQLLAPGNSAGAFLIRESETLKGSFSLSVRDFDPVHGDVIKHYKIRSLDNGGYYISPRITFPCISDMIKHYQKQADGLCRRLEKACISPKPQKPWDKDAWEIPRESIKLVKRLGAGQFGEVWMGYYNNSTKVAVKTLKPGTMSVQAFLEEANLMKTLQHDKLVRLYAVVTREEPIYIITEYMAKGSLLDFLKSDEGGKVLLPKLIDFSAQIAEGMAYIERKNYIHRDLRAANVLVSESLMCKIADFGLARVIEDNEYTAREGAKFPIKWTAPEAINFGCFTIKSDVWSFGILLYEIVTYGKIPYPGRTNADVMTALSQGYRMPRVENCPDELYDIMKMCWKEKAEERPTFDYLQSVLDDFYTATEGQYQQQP
T5 sequence (P04626 679-1255): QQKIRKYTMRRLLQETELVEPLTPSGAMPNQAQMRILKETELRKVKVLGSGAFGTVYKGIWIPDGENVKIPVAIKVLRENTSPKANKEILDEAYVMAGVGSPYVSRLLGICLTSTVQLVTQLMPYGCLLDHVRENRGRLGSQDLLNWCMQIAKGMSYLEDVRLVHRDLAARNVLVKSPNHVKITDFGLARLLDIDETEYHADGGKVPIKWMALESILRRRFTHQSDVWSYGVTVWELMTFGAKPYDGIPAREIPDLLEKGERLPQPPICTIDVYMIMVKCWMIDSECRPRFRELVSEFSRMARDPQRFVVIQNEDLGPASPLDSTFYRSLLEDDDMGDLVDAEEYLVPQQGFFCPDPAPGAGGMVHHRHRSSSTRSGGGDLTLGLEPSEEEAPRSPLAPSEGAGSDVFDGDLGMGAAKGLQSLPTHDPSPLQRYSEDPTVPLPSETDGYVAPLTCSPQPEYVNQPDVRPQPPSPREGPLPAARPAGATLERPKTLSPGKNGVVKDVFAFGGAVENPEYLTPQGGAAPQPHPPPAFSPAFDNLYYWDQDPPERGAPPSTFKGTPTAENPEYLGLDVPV
T6 sequence (O08775 786-1343): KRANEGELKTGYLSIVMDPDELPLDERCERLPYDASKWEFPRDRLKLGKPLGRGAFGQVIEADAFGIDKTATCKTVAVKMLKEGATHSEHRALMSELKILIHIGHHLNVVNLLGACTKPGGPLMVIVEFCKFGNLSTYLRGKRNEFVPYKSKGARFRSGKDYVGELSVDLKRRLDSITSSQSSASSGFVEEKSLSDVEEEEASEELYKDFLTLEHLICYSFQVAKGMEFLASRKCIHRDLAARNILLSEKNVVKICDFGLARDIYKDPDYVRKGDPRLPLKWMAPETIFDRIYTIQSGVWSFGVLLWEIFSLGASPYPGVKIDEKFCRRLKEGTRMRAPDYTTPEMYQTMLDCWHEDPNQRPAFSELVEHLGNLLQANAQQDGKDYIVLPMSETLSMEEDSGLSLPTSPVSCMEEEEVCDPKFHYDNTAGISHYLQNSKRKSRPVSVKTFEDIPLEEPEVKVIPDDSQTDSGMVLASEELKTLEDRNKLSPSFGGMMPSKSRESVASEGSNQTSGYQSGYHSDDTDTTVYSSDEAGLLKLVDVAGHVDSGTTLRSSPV

| SMILES | IC50 (Lyn kinase) | IC50 (c-Src kinase) | IC50 (CDK1) | IC50 (A375 malignant melanoma) | IC50 (RET) | IC50 (HER2) | IC50 (VEGF-R2) | IC50 (HCT-116 colon carcinoma) |
| --- | --- | --- | --- | --- | --- | --- | --- | --- |
| CNCc1cncc(-c2cnc3[nH]nc(-c4nc5cc(OC(F)(F)F)ccc5[nH]4)c3c2)c1 [Cpd 96, methyl-{5-[3-(5-trifluoromethoxy-1H-benzoimidazol-2-yl)-1H-pyrazolo[3,4-b]pyridin-5-yl]-pyridin-3-ylmethyl}-amine] | 8.38 nM | 31.2 nM | 0.9 to 1.3 nM | 47.1 nM | > 100000 nM | 3820 nM | > 100 nM | 55.5 nM |
| CCNCc1cncc(-c2cnc3[nH]nc(-c4nc5cc(OC)ccc5[nH]4)c3c2)c1 [Cpd 101, ethyl-{5-[3-(5-methoxy-1H-benzoimidazol-2-yl)-1H-pyrazolo[3,4-b]pyridin-5-yl]-pyridin-3-ylmethyl}-amine] | 2.54 nM | 8.85 nM | 0.8 nM | 101 nM | ~1000 nM | 4170 nM | > 100 nM | 48.7 nM |
